Where “and” joins values, the source holds several entries; their conditions need not be identical. Equal entries are not always repeated.
Legend:
[1] = test system: blood clotting (citrated sheep blood); assay: Activated clotting time (ACT) in citrated sheep blood (Example 2); settings: single drug, 0.6 ng/mg
Experimental: The activated clotting time (ACT) evaluation of anticoagulants was performed in calcium citrate sheep blood and recorded employing the Hemochron® Response device.
The ACT measurements were made in citrated sheep blood. 1.9 ml of citrated sheep blood was added to a test tube containing an activator (Hemochron@Celite@ ACT tubes, Lot F8FTE026 from Accriva Diagnostics, Inc.). A target amount of drug solution was then added into the test tube. The test tube was gently swirled so that the blood and drug was well-mixed. 0.1 ml of 0.3M calcium chloride was then added. The tube was gently shaken before being inserted into the Hemochron Response detector. The ACT read out was recorded and reported. The ACT of the control blood in the absence of any drug as first determined to establish a baseline. Then ACT was determined in the presence of different concentrations of the drug as a single component. Selected drug combinations were then tested to evaluate for potential synergy in action between the two drugs.

[2] = test system: blood clotting (citrated sheep blood); assay: Net activated clotting time (net ACT) in citrated sheep blood (Examples 3-5); parameters: key: seconds; measured ACT minus blood control ACT (165 s); settings: single drug, blood control 165 seconds
Experimental: The activated clotting time (ACT) evaluation of anticoagulants was performed in calcium citrate sheep blood and recorded employing the Hemochron® Response device. The ACT measurements were made in citrated sheep blood. 1.9 ml of citrated sheep blood was added to a test tube containing an activator (Hemochron@Celite@ ACT tubes, Lot F8FTE026 from Accriva Diagnostics, Inc.). A target amount of drug solution was then added into the test tube. The test tube was gently swirled so that the blood and drug were well-mixed. 0.1 ml of 0.3M calcium chloride was then added. The tube was gently shaken before being inserted into the Hemochron Response detector. The ACT read out was recorded and reported. The ACT of the control blood in the absence of any drug as first determined to establish a baseline. Here the blood control measured is 165 seconds. Then ACT was determined in the presence of different concentrations of the drug as a single component. In the following study, the net ACT (measured ACT minus blood control ACT) was utilized to visualize the synergistic effect of direct factor Xa inhibitor (Rivaroxaban) and direct factor IIa inhibitor (Argatroban) drug combinations. The figures are presented in ng/mg wherein the density of blood and tissue are approximately the same.
Example 4 is the continuation of example 3, which employed the same method as in example 3. The only difference is that the direct factor Xa inhibitor Edoxaban is used in place of direct factor Xa inhibitor Rivaroxaban.
Example 5 is the continuation of example 3, which employed the same method as in example 3. The only difference is that the direct factor Xa inhibitor Betrixaban is used in place of direct factor Xa inhibitor Rivaroxaban.

porcine coronary artery = assay: In vivo porcine coronary stent implantation: fibrin score and late lumen loss (Examples 25-26); settings: Table 9, day 7
Experimental: The drug eluting stent systems containing different anticoagulants prepared as described in Example 11 were evaluated at 3 hours, 6 hours, 1 day, 3 days, 6 days, 7 days, or 28 days following implantation in a porcine coronary artery model.
The porcine model was chosen as this model has been used extensively for stent and angioplasty studies resulting in a large volume of data on the vascular response properties and its correlation to human vascular response (Schwartz et al, Circulation. 2002; 106:1867 1873). The animals were housed and cared for in accordance with the Guide for the Care and Use of Laboratory Animals as established by the National Research Council.
After induction of anesthesia, the left or right femoral artery was accessed using standard techniques and an arterial sheath was introduced and advanced into the artery. Vessel angiography was performed under fluoroscopic guidance, a 7 Fr. guide catheter was inserted through the sheath and advanced to the appropriate location where intracoronary nitroglycerin was administered. An appropriate implantation segment of coronary artery was randomly selected and a 0.014″ guidewire inserted. Quantitative Coronary Angiography (QCA) was performed to document the results. The appropriately size stent was advanced to the deployment site. The balloon was inflated at a steady rate to a pressure sufficient to achieve a balloon to artery ratio of approximately 1.1 to 1.0.
Follow up angiography was performed at the designated timepoint for each of the animals. Late lumen loss (LLL) can be expressed as: […]
The LLL is an indicator of the amount smooth muscle cell (SMC) proliferation or inhibition. It is used to measure efficacy between drugs for SMC proliferation inhibition. The smaller the LLL, the better the efficacy of the drug.
Stented portions of coronary arteries were embedded in methyl methacrylate (MMA), then divided into a target of at least three blocks of approximately similar lengths for histology evaluation. Quantitative histopathological evaluation of stented artery sections was then performed and scored as indicated. For Fibrin formation, scores ranged from 0 to 3, with a score of 0 indicating absent or rare minimal spotting around struts of the stent, a score of 1 indicating the presence of fibrin in small amounts localized only around the struts, a score of 2 indicating the moderately abundant or denser presence of fibrin around and extending beyond the struts, and a score of 3 indicating the presence of abundant and dense fibrin and/or bridging of the fibrin between the struts. The mean score was calculated and reported. The mean of each section was then averaged to provide a mean fibrin score per stent. The smaller the fibrin score, the better efficacy.

[3] = test system: platelets (Tissue factor generated antiplatelet); settings: cited from earlier work
Factor IIa = settings: cited from earlier work
[4] = test system: Human Aortic SMC (HAoSMC); assay: HAoSMC cell proliferation assay (CellTiter Aqueous, 72 hours); format: cell-based
Experimental: Cell proliferation assay was done in 96-well format. Low passage cells were trypsinized and seeded in 96 well plates at a density of ~4000 cells/well. The cells are allowed to attach overnight in a CO2 incubator. Next day, the medium was removed and replaced with fresh complete medium containing various concentrations of the test compounds. The final concentration of vehicle (DMSO) in the test medium was 0.1%. After adding test compounds, the cells were incubated for 72 hours. Following this period, the medium was removed and then added fresh medium (100 μl) containing CellTiter Aqueous (1× concentration final) to the wells and incubated for 2 hours in the CO2 incubator. At the end of incubation measured […] with a plate-reader. Controlled incubations with untreated cells and blank incubations containing only medium were included and tested similarly. Based on the cell viability assay the percentage inhibition of the cell proliferation was determined at the different concentrations of the drug tested.
Following the cell proliferation assay as indicated earlier, the percent cell proliferation inhibition was determined, and the assay results plotted to determine the IC50.

[5] = test system: blood clotting (heparinized sheep blood); assay: Net ACT initiated by platelet activation factor (PAF) and CaCl2 in heparinized sheep blood (Examples 6-11); settings: single drug, 0.05 ng/mg; PAF & CaCl2; blood control 235 seconds
Experimental: In order to examine the potential synergistic effects between anti-inflammatory agents, direct factor Xa inhibitors, direct factor IIa inhibitors, antiplatelets (P2Y12 inhibitor and glycoprotein IIb/IIIa inhibitor, platelet activation factor and CaCl2 were utilized by measuring ACT. Heparinized sheep blood was used to preserve platelet function.
The activated clotting time (ACT) evaluation initiated by platelet activation factor (PAF) and calcium chloride (CaCl2) was performed in heparinized sheep blood and recorded employing the Hemochron® Response device. […] A target amount of drug solution was then added into the test tube. The test tube was gently swirled so that the blood and drug were well-mixed. […] The tube was gently shaken before being inserted into the Hemochron Response detector. The ACT read out was recorded and reported. The ACT of the control heparinized sheep blood in the absence of any drug as first measured to establish a baseline. […] Then ACT was measured in the presence of different concentrations of the drug measured. Selected drug combinations were then tested to evaluate for potential synergy in action between the drug combination. The net ACT (ACT minus blood control ACT) was utilized to visualize the synergistic effect. […] The figures are presented in ng/mg wherein the density of blood and tissue are approximately the same.

[6] = In vivo drug release from / drug remaining on implanted stents (HPLC); parameters: species or system porcine; settings: 14 mm stents, day 7, n = 3
Experimental: The percentage and/or amount of each anticoagulant drug for or by each time point indicated were analyzed for each stent from the different devices in the example and the average drug tissue concentration reported.
Tissue concentrations and the amount of drug released from the stents were measured using stents implanted in porcine arteries for the drugs as indicated. The arteries at the designated time point were excised and a length of stented artery spanning from 5 mm proximal to the stented segment to 5 mm distal to the stented segment was cut. The stented artery was cut longitudinally with surgical scissors. The stents were separated from the tissue. The tissue content of each drug was analyzed using liquid chromatography mass spectroscopy (LCMS) and reported as a mean for each of the timepoint indicated. For drug remaining on each stent, each drug was extracted from the stent, measured using HPLC, and reported as a mean for each of the timepoint indicated as drug released or drug remaining on a stent (where drug remaining is equal to 100% minus the percentage of drug released).

CC1CNc2c(cccc2S(=O)(=O)N[C@@H](CCCNC(=N)N)C(=O)N2CC[C@@H](C)C[C@@H]2C(=O)O)C1 (stereo partly drawn) [Argatroban]
ACT [1]: 301
net ACT ([2]; 0.15 ng/mg): 42 and 46
net ACT ([2]; 0.3 ng/mg): 54
LLL / smooth muscle cell proliferation compared to bare metal control stents (porcine coronary artery): larger LLLs compared to control
inhibition of fibrin formation compared to bare metal control stents (porcine coronary artery): not effective at inhibiting fibrin formation
IC50 [3]: 0.079 µM
IC50 for Tissue factor generated antiplatelet [3]: 0.04 ng/mg
IC50 for Anti-Factor IIa (Factor IIa): 0.0107 ng/mg
IC50 (Factor IIa; read-out: IC50 for Anti-Factor IIa): 0.021 µM
HAoSMC proliferation inhibition [4]: small to no inhibition
net ACT [5]: 56 s
Cumulative Percent Release of drug by day 7: Argatroban [6]: at least 96.9%

— patent US20260315653A1, “ANTICOAGULANT COMPOSITIONS COMPRISING ANTI-PLATELET AND ANTI-INFLAMMATORY DRUGS AND METHODS AND DEVICES FOR THEIR USE” (Elixir Medical Corporation, priority 2023, published 2026)
